Assay results reported in patent EP4212151B1, “STILBENE, FLAVONOL OR CURCUMIN COMPOUNDS FOR USE IN THE TREATMENT OF AGE-RELATED MACULAR DEGENERATION (AMD; ARMD)” (Knepper, Paul A., priority 2022, dated 2023).
Where “and” joins values, the source holds several entries; their conditions need not be identical. Equal values may be shown once. Read-outs that look alike come from different tables or passages of the source.

What was measured:
[1] = system: superactivated platelets (SAPs); assay: In-vitro flow cytometry platelet assay: superactivated platelets (SAP% of all platelets) after thrombin and convulxin; combination index by CompuSyn; type: cell-based; settings: Homo sapiens; for IC50: individually (single agent), read-out: IC50 for the reduction of SAPs; for inhibition at 1 µM: single agent 1 µM; for inhibition at 1 µM / inhibition at 5 µM / inhibition at 10 µM / inhibition at 0.01 µM / inhibition at 0.1 µM: read-out: % change; for inhibition at 5 µM: single agent 5 µM; for inhibition at 10 µM: single agent 10 µM; for inhibition at 0.01 µM: single agent 0.01 µM; for inhibition at 0.1 µM: single agent 0.1 µM
Description: Briefly, platelet-rich plasma (PRP) from patients with age-related macular degeneration (n = 9) are isolated from whole blood and challenged using dual agonists thrombin and convulxin (collagen substitute) to stimulate superactivated platelets (SAPs). SAPs are defined as positive for surface fibrinogen and negative for activated integrin αIIbβ3, whereas activated platelets are defined as negative for surface fibrinogen and positive for activated integrin αIIbβ3. Surface fibrinogen is detected by pre-treating platelets with biotinylated-fibrinogen (5 µg/mL) followed by staining with any common fluorophore conjugated to streptavidin. The streptavidin-fluorophore complex binds to the biotin-fibrinogen complex present on SAPs but not activated platelets due to the differing composition of charged surface proteins. Activated integrin αIIbβ3 - characteristic of activated platelets - is detected using the PAC-1 antibody conjugated to any compatible fluorophore. […] The effect of RQC on SAPs is determined by pre-treating diluted PRP samples with combinations of R, Q, and/or C for 5 minutes at 37°C followed by challenge with thrombin and convulxin for 5 minutes at 37°C. The samples are then stained with the fluorophore-conjugates and fixed in 3% formalin before analysis using a flow cytometer. SAP percentage is calculated as a percentage of all platelets. The effect size of RQC is determined by the change ion SAP percentage before and after treatment with RQC and is used as input to calculate drug synergy using the CompuSyn software developed by Chou, et al. Drug synergy, additivism, and antagonism are defined as a combination index (CI) score less than, equal to, or greater than 1, respectively. The level of drug synergy can be further stratified by quantile, tertile, or quartile in cases where numerous synergistic doses are compared.
The average combination index values of low, medium, and high doses of RQC for the inhibition of SAPs in AMD subjects was determined. The Combination Index (CI) theorem derived by Chou-Talalay [Chou, 2010] was calculated for each combination drug treatment of R, Q, and C. The CI is useful in quantifying levels of synergism and antagonism. The theorem is based on the median-effect equation to provide a common link between a single entity and multiple entities. A CI value < 1 indicates synergism, a CI equal to 1 indicates additivity, and a CI > 1 indicates antagonism. RQC was very effective in low, medium, and high doses.
R, Q, and C at three different dose levels each were tested in all possible combinations, resulting in 27 possible double and 27 possible triple combinations within each subject. The doses tested were R (1, 5, and 10 µM), Q (1, 5, and 10 µM), and C (0.01, 0.1, and 1 µM) and the effect was based on the inhibition of SAPs. To obtain the mean number of synergistic doses in each cohort, the average CI score for each dose combination was calculated within each cohort, producing a set of 27 double combination CI scores and 27 triple combination CI scores per cohort. Out of each set of 27 dose combinations, the number of CI scores under 0.8 (highly synergistic) was counted and reported here. For example, in control subjects 5 out of 27 possible double combinations were synergistic while 25 out of 27 possible triple combinations were synergistic based on the mean CI for each dose in the cohort.

[2] = cited from earlier work; for dose found well tolerated, low or no toxicity: clinical trials, doses as high as; for maximum dose (highest dose evaluated in a repeated-dose clinical trial and found safe and tolerable): human, in vivo
[3] = cited from earlier work; for Half-life: human, in vivo; for Bioavailability: oral
Dry AMD Subjects [4] = assay: Drusen volume by OCT (manual segmentation, ImageJ) in dry AMD subjects, oral treatment for 18 months; type: in vivo, human; settings: oral C 2660 mg/day or RQC 200/240/2660 mg/day; for Drusen Volume % Change: 18 months vs baseline; for Drusen Volume, 18 Months: after 18 months
Description: As stated hereinabove, dry AMD is a common disease characterized by retinal pathology. A typical finding of dry AMD is the presence of drusen and/or geographic atrophy. TABLE 1 below depicts drusen volume at baseline and after 18 months according to drusen size in all participants (C or RQC). […] To compare the changes in drusen volume found in this study in subjects taking oral curcumin against what would be expected over the natural course of the disease, optical coherence tomography (OCT) scans were evaluated. OCT is a new retinal imaging technology which is useful to analyze drusen volume and geographic atrophy. Each subject was scanned 6 months before treatment. This allowed for the examination of the natural history of a subject's drusen progression compared to progression with treatment. Standard deviation (SD) is expressed in mm^3. Statistical significance was determined by Wilcoxon Rank Sum test. Drusen volume was measured by manual segmentation using ImageJ software. Drusen size was determined by the widest width of the drusen and expressed in µm. […]

Dry AMD Subjects [5] = assay: Geographic atrophy area and growth rate in dry AMD subjects, Phase 1 study, 12 months; type: in vivo, human
Protocol: The effect of RQC and curcumin on geographic atrophy growth was evaluated in a Phase 1 study (TABLE 5, below) TABLE 5.
The expected untreated GA growth rate reported in the literature is 1.20 mm^2/year (or 0.18 mm/year adjusted for baseline lesion area). […] The decrease in GA growth rate was highly significant (p = 0.0004) compared with untreated samples [Yehoshua, et al., 2011] and remained highly significant when adjusted for differences in baseline lesion area (p = 0.0001). […]

[6] = drusen ≥ 250 µm, listed as curcumin

O=c1c(O)c(-c2ccc(O)c(O)c2)oc2cc(O)cc(O)c12 [Quercetin, 2-(3,4-dihydroxyphenyl)-3,5,7-trihydroxychromen-4-one;dihydrate]
IC50 [1]: 31 µM
inhibition at 1 µM ([1]; AMD (GA) subject): 6.7%
inhibition at 1 µM ([1]; control subject): 36.9%
inhibition at 5 µM ([1]; AMD (GA) subject): 43.9%
inhibition at 5 µM ([1]; control subject): 38.2%
inhibition at 10 µM ([1]; AMD (GA) subject): 27.3%
inhibition at 10 µM ([1]; control subject): 24.7%
dose found well tolerated, low or no toxicity [2]: ≤ 5 g per day
maximum dose (highest dose evaluated in a repeated-dose clinical trial and found safe and tolerable) [2]: 5000 mg/day

Oc1ccc(/C=C/c2cc(O)cc(O)c2)cc1 [Resveratrol, 5-[(1E)2-(4-hydroxyphenyl)ethenyl]-1,3-benzenediol]
Half-life [3]: 2 to 5 h
Bioavailability [3]: 0.1-0.4%
IC50 [1]: 36 µM
inhibition at 1 µM ([1]; AMD (GA) subject): 8.6%
inhibition at 1 µM ([1]; control subject): 19.6%
inhibition at 5 µM ([1]; AMD (GA) subject): 17.1%
inhibition at 5 µM ([1]; control subject): 24.6%
inhibition at 10 µM ([1]; AMD (GA) subject): 18.6%
inhibition at 10 µM ([1]; control subject): 30.5%
dose found well tolerated, low or no toxicity [2]: ≤ 5 g per day
maximum dose (highest dose evaluated in a repeated-dose clinical trial and found safe and tolerable) [2]: 5000 mg/day

COc1cc(/C=C/C(=O)CC(=O)/C=C/c2ccc(O)c(OC)c2)ccc1O [Curcumin, (1E,6E)-1,7-bis(4-Hydroxy-3-methoxyphenyl)-1,6-heptadiene-3,5-dione]
Half-life [3]: 5 to 6 h
Bioavailability [3]: 0.01-0.1%
Cmax ([3]; read-out: maximum plasma concentration, two capsules (1000 mg each)): 600 to 1000 nM
IC50 [1]: 3.6 µM
inhibition at 0.01 µM ([1]; AMD (GA) subject): 11.5%
inhibition at 0.01 µM ([1]; control subject): 24.1%
inhibition at 0.1 µM ([1]; AMD (GA) subject): 18.4%
inhibition at 0.1 µM ([1]; control subject): 36.8%
inhibition at 1 µM ([1]; AMD (GA) subject): 37%
inhibition at 1 µM ([1]; control subject): 33.7%
Drusen Volume % Change (Dry AMD Subjects [4]; All drusen): -13.0%
Drusen Volume, 18 Months (Dry AMD Subjects [4]; All drusen): 8.70 mm^3
Drusen Volume, 18 Months (Dry AMD Subjects [4]; All drusen, listed as curcumin): 8.7 (± 1.6) mm^3
Drusen Volume, Baseline (Dry AMD Subjects [4]; All drusen): 10.1 mm^3
Drusen Volume, Baseline (Dry AMD Subjects [4]; All drusen, listed as curcumin): 10.1 (± 1.60) mm^3
Drusen Volume % Change (Dry AMD Subjects [4]; drusen 63-124 µm): 0.0%
Drusen Volume, 18 Months (Dry AMD Subjects [4]; drusen 63-124 µm): 0.08 mm^3
Drusen Volume, Baseline (Dry AMD Subjects [4]; drusen 63-124 µm): 0.08 mm^3
Drusen Volume % Change (Dry AMD Subjects [4]; drusen 125-249 µm): -1.6%
Drusen Volume, 18 Months (Dry AMD Subjects [4]; drusen 125-249 µm): 3.70 mm^3
Drusen Volume, Baseline (Dry AMD Subjects [4]; drusen 125-249 µm): 3.80 mm^3
Drusen Volume % Change (Dry AMD Subjects [4]; drusen ≥ 250 µm): -20.0%
Drusen Volume % Change (Dry AMD Subjects [4]; [6]): -30.0% and -20.0%
Drusen Volume, 18 Months (Dry AMD Subjects [4]; drusen ≥ 250 µm): 6.00 mm^3
Drusen Volume, 18 Months (Dry AMD Subjects [4]; [6]): 6.00 (± 1.30) mm^3
Drusen Volume, Baseline (Dry AMD Subjects [4]; drusen ≥ 250 µm): 7.50 mm^3
Drusen Volume, Baseline (Dry AMD Subjects [4]; [6]): 0.75 (± 1.30) mm^3
Growth Rate (mm^2/y) (Dry AMD Subjects [5]; GA, mean of arm, 12 months of treatment): 0.68 ± 0.79 mm^2/y
Growth Rate (mm^2/y) (Dry AMD Subjects [5]; GA, mean of arm, 12 months of treatment, listed as curcumin): 0.68 mm^2/y
Baseline Area (mm^2) (Dry AMD Subjects [5]; GA, mean of arm, baseline): 1.08 ± 1.10 mm^2
Growth Rate (mm/y) (Dry AMD Subjects [5]; GA, mean of arm, square root transformed (adjusted for baseline lesion area), 12 months): 0.21 ± 0.25 mm/y
Growth Rate (mm/y) (Dry AMD Subjects [5]; GA, mean of arm, square root transformed (adjusted for baseline lesion area), 12 months, listed as curcumin): 0.21 mm/y
Area (mm^2), Baseline (Dry AMD Subjects [5]; geographic atrophy, individual eyes (subject c0, eye c2, GA category c7), baseline, listed as C): 1.794 mm^2 and 2.254 mm^2 and 0.147 mm^2 and 0.134 mm^2
Growth Rate (mm^2/y) (Dry AMD Subjects [5]; geographic atrophy, individual eyes, 12 months, listed as C): 1.462 mm^2/y and 1.258 mm^2/y and -0.037 mm^2/y and 0.037 mm^2/y
Area (mm^2), 12 mo (Dry AMD Subjects [5]; geographic atrophy, individual eyes, after 12 months of treatment, listed as C): 3.256 mm^2 and 3.512 mm^2 and 0.110 mm^2 and 0.171 mm^2
Growth Rate (mm/y) (Dry AMD Subjects [5]; geographic atrophy, individual eyes, square root transformed, 12 months, listed as C): 0.373 mm/y and 0.465 mm/y and -0.046 mm/y and 0.055 mm/y
Growth Rate (mm^2/y) (Dry AMD Subjects [5]; nascent GA (nGA), mean of arm, 12 months of treatment): 0.00 ± 0.05 mm^2/y
Growth Rate (mm^2/y) (Dry AMD Subjects [5]; nascent GA (nGA), mean of arm, 12 months of treatment, listed as curcumin): 0.005 mm^2/y
Baseline Area (mm^2) (Dry AMD Subjects [5]; nascent GA (nGA), mean of arm, baseline): 0.14 ± 0.01 mm^2
Growth Rate (mm/y) (Dry AMD Subjects [5]; nascent GA (nGA), mean of arm, square root transformed (adjusted), 12 months): 0.01 ± 0.07 mm/y
Growth Rate (mm/y) (Dry AMD Subjects [5]; nascent GA (nGA), mean of arm, square root transformed (adjusted), 12 months, listed as curcumin): 0.01 mm/y
maximum dose (highest dose evaluated in a repeated-dose clinical trial and found safe and tolerable) [2]: 12000 mg/day
dose safe and well tolerated ([2]; review of clinical trials, doses up to, only minimal, mostly gastrointestinal side effects): 8 to 12 g/day
